These results are taken from patent US20240122178A1, “CAFFEIC ACID-BASED COMPOSITE MATERIAL AND PREPARATION METHOD THEREOF” (ZHEJIANG UNIVERSITY, priority 2021, published 2024).

The data set can be described thus: caffeic acid loading rate of carrier incubated with caffeic acid solution in ethanol. The data set is classed as physicochemical. To be noted: optimal loading conditions: molar ratio γ-cyclodextrin to caffeic acid 1:64, loading time 900 minutes, 40° C. The procedure:
In one embodiment, under the conditions of reaction temperature of 40° C. and reaction time of 900 minutes, the effects of different ratios of the cyclodextrin metal-organic framework material to caffeic acid (a molar ratio of γ-cyclodextrin in the cyclodextrin metal-organic framework material to caffeic acid is 1:4, 1:8, 1:32, 1:64 and 1:128, respectively) on the caffeic acid loading rate are compared. From the results, it can be seen that when the molar ratio of γ-cyclodextrin to caffeic acid in the cyclodextrin metal-organic framework composite is 1:4, the caffeic acid loading rate […]; with the increase of caffeic acid dosage, the caffeic acid loading rate gradually increases, and the increase of the loading rate is no longer obvious after increasing to 1:64. Therefore, the molar ratio of γ-cyclodextrin in the cyclodextrin metal-organic framework material to caffeic acid is selected from 1:4 to 1:128, further from 1:32 to 1:128, further from […], still further from 1: 60-70, and most preferably is 1:64.
In one embodiment, the effects of different incubating time (10, 20, 60, 180, 360, 720, 900, 2160 minutes) on the caffeic acid loading rate are compared under the conditions: the molar ratio of γ-cyclodextrin in the cyclodextrin metal-organic framework material to caffeic acid being 1:64 and the reaction temperature being 40° C. […]

Regarding `OC[C@H]1O[C@@H]2O[C@H]3[C@H](O)[C@@H](O)[C@@H](O[C@H]4[C@H](O)[C@@H](O)[C@@H](O[C@H]5[C@H](O)[C@@H](O)[C@@H](O[C@H]6[C@H](O)[C@@H](O)[C@@H](O[C@H]7[C@H](O)[C@@H](O)[C@@H](O[C@H]8[C@H](O)[C@@H](O)[C@@H](O[C@H]9[C@H](O)[C@@H](O)[C@@H](O[C@H]1[C@H](O)[C@H]2O)O[C@@H]9CO)O[C@@H]8CO)O[C@@H]7CO)O[C@@H]6CO)O[C@@H]5CO)O[C@@H]4CO)O[C@@H]3CO` [γ-cyclodextrin], the “caffeic acid loading rate” value was determined as 7.28%.
